RP-LC retention time data for 32 compounds are collected here from the METLIN SMRT retention time set (Domingo-Almenara et al. 2019).

SMILES strings stand for the structures.

The data set can be described thus: gradient 5% acetonitrile 3 min, to 50% in 2 min, to 85% in 15 min, held 3 min, 100 µL/min. Particulars: column: Zorbax Extend-C18 2.1 x 50 mm; eluents: water / acetonitrile, 0.1% formic acid. Put shortly:
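Pure standards were run in mixtures of ~100 molecules by HPLC coupled to a quadrupole time-of-flight mass spectrometer. The column was a Zorbax Extend-C18 (2.1 × 50 mm, 1.8 μm) at 100 μL/min, with water and acetonitrile each containing 0.1% formic acid, in positive and negative ionization mode. Dead and dwell volumes were 40 μL and 900 μL. Retention time was taken from computationally picked adduct peaks, each manually inspected, with data collected over 3 months.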
Consider `O=C(COc1ccc2ccccc2c1)NCC(O)c1ccc(C(F)(F)F)cc1` (configuration not stated), for which the RP-LC retention time worked out at 898 s.

For the compound `COc1ccc(C(=O)NCCC(O)C(C)(C)C)cc1` (configuration not stated), the RP-LC retention time came to 688 s.

On to `O=C(Cn1nc2c(N3CCCCCC3)nccn2c1=O)Nc1cccc(Cl)c1`, for which the RP-LC retention time was 763 s.

`O=C(OCCCNc1nc(-c2ccc(Cl)cc2)nc2ccccc12)c1cccs1` returned an RP-LC retention time of 804 s.

As to `CCCOc1ccc(NC(=O)c2cc(=O)c3ccc(C)cc3o2)c2cccnc12`, the RP-LC retention time worked out at 686 s.

On to `Cc1ccc(-n2c(=O)c3sccc3n(Cc3nc(-c4ccc(Br)cc4)no3)c2=O)cc1`, for which the RP-LC retention time is 1110 s.

Take `COc1ccc(OC)c(-c2cn3ccn(-c4ccc(Cl)cc4)c(=O)c3n2)c1`: the RP-LC retention time was found to be 887 s.

For the compound `COc1ccc(NC(=O)N2CCC(n3c(-c4ccoc4)nc4cccnc43)C2)cc1F` (configuration not stated), the RP-LC retention time is 725 s.

`CC(C)N1CCC(c2nnc3n2CCN(S(=O)(=O)c2ccc(C(F)(F)F)cc2)C3)C1` (configuration not stated) gave an RP-LC retention time of 650 s.

For the compound `CC(C)(C)c1ccc(S(=O)(=O)NCC(=O)Nc2ccc3c(c2)OCO3)cc1`, the RP-LC retention time is 846 s.

`Cc1ccc(/C=C/c2nc(-c3ccc4oc(C)nc4c3)no2)o1` yielded an RP-LC retention time of 1130 s.

`COc1ccc(C)cc1NC(=O)N1CCC(c2cc(N)on2)CC1` showed an RP-LC retention time of 720 s.

In turn, `CC(C)NC(=O)N1CCCC(c2cccc(C(=O)NCCN3CCCCC3C)c2)C1` (configuration not stated) displayed an RP-LC retention time of 624 s.

`Nc1nccc(Oc2ccc(NC(=O)c3c[nH]cc(-c4ccc(F)cc4)c3=O)cc2F)c1Cl`: the RP-LC retention time worked out at 751 s.

In turn, `CCc1cc(C(=O)N2CCN(c3ccccn3)CC2)nc2ccnn12` came in with an RP-LC retention time of 573 s.

The compound `Cc1nc(-c2csc(S(=O)(=O)N3CCCC(C(=O)Nc4ccc(C)c(Cl)c4)C3)c2)no1` (configuration not stated) displayed an RP-LC retention time of 940 s.

`CN(C)C(=O)C1CN(C(=O)c2ccc(Br)cc2)CC12CCOCC2` (configuration not stated) yielded an RP-LC retention time of 631 s.

On to `Cn1nc(-c2nc(-c3ccc(F)cc3)no2)c2c1CCN(C(=O)NC1CCCC1)C2`, for which the RP-LC retention time came to 771 s.

Regarding `Cc1oc(-c2[nH]ncc2C(=O)N2CCCCC2)cc1S(=O)(=O)Nc1ccc(F)c(F)c1`, the RP-LC retention time amounted to 780 s.

The compound `O=C(Cc1cn(Cc2ccc(Cl)cc2)c2ccccc12)NCc1ccccn1` displayed an RP-LC retention time of 700 s.

`CC1CC(=O)N(CC(=O)Nc2ccc(F)cc2F)c2ccccc2S1` (configuration not stated) yielded an RP-LC retention time of 914 s.

Take `O=C(NC1CCCCC1)c1nc(Cn2c(=O)oc3ccc(Cl)cc32)no1`: the RP-LC retention time was 981 s.

Take `COc1ccc(CNC(=O)C2CCN(c3nc(C4CCC4)nc4csc(C)c34)CC2)cc1OC`: the RP-LC retention time is 957 s.

`COc1ccc(OC)c2sc(NC(=O)c3cc(Cl)sc3Cl)nc12` returned an RP-LC retention time of 1010 s.

Consider `CCn1cc(-c2ccnc3[nH]c(-c4cccc(CN(C)C)c4)cc23)c(-c2ccc(NC(=O)N(C)C)cc2)n1`, for which the RP-LC retention time was found to be 632 s.

In the case of `CCCN1CCN(C(=O)c2ccc3ccnc(N4CCN(c5ccc(Cl)cc5)CC4)c3c2)CC1`, the RP-LC retention time was determined as 643 s.

On to `Cc1ccc(C(C)NC(=O)c2cn(-c3ccc(NC(=O)CC(C)C)cn3)cn2)cc1` (configuration not stated), for which the RP-LC retention time amounted to 872 s.

Regarding `O=C(Nc1ccccc1)[C@@H]1OCCN(C2CC2)[C@H]1c1ccccc1`, the RP-LC retention time was 668 s.

As to `O=C(NC1CCCC1)C1CCN(C(=O)N2CCOc3ccc(Cl)cc32)CC1`, the RP-LC retention time was determined as 841 s.

For the compound `OC(CN1CCN(c2cccc(Cl)c2)CC1)c1ccc2c(c1)OCO2` (configuration not stated), the RP-LC retention time worked out at 690 s.

As for `COc1ccc(-c2nnc(Cc3nc(-c4ccccc4F)no3)o2)cc1OC`, the RP-LC retention time turned out to be 848 s.

On to `Cc1ccoc1C(=O)N1CCC2(CCC2O)CC1` (configuration not stated), for which the RP-LC retention time stood at 645 s.
